# According to patent publication US10227344B2, “CK2 inhibitors, compositions and methods thereof” (Polaris Pharmaceuticals, Inc., priority 2016, dated 2019):
# Assays:
# Type in all cases: cell-based
# BT-474 = test: Cancer cell panel, cell viability (resazurin): Breast, BT-474; conditions: BT-474 (Breast), 72 hours; labelled drug combined with Example 3
# SK-MEL-24 = test: Cancer cell panel, cell viability (resazurin): Melanoma, SK-MEL-24; conditions: SK-MEL-24 (Melanoma), 72 hours; labelled drug combined with Example 3
# A549 = test: Cancer cell panel, cell viability (resazurin): NSCLC, A549; conditions: 72 hours, labelled drug combined with Example 3
# Procedure: (§1) Cells were plated in 96-well plates and treated for 72 hours with a serially diluted CK2 inhibitor or anti-cancer drug or their combination. The suspension cell lines were treated right after plating, while the adherent cells were allowed to attach overnight prior to the start of the treatment.
# (§2) Cell viability was determined by adding resazurin to cell cultures and measuring fluorescence with a plate reader. Relative cell viability was calculated by dividing the cell viability signal from a test sample by that of a non-treated control. […] Bliss Independence and Highest Single Agent models were used to determine if there is synergy, additivity or antagonism between the CK2 inhibitor and an anti-cancer drug.
# RPMI8226 = test: Cancer cell panel, cell viability (resazurin): multiple myeloma, RPMI8226; conditions: 72 hours, labelled drug combined with Example 3
# SK-MEL-3 = test: Cancer cell panel, cell viability (resazurin): Melanoma, SK-MEL-3; conditions: SK-MEL-3 (Melanoma), 72 hours; labelled drug combined with Example 3
# Procedure: as §1, §2
# HCT116 = test: Cancer cell panel, cell viability (resazurin): Colon, HCT116; conditions: 72 hours, labelled drug combined with Example 3
# H1299 = test: Cancer cell panel, cell viability (resazurin): NSCLC, H1299; conditions: 72 hours, labelled drug combined with Example 3
# Procedure: as §1, §2
# BxPC3 = test: Cancer cell panel, cell viability (resazurin): Pancreatic, BxPC3; conditions: 72 hours, labelled drug combined with Example 3
# H23 = test: Cancer cell panel, cell viability (resazurin): NSCLC, H23; conditions: 72 hours, labelled drug combined with Example 3
# Caov-3 = test: Cancer cell panel, cell viability (resazurin): Ovarian, Caov-3; conditions: Caov-3 (Ovarian), 72 hours; labelled drug combined with Example 3
# A375 = test: Cancer cell panel, cell viability (resazurin): Melanoma, A375; conditions: 72 hours, labelled drug combined with Example 3
# NAMALWA = test: Cancer cell panel, cell viability (resazurin): Burkitt's Lymphoma, NAMALWA; conditions: 72 hours, labelled drug combined with Example 3
# MeWO = test: Cancer cell panel, cell viability (resazurin): Melanoma, MeWO; conditions: 72 hours, labelled drug combined with Example 3
# Procedure: as §1, §2
# Raji = test: Cancer cell panel, cell viability (resazurin): Burkitt's Lymphoma, Raji; conditions: 72 hours, labelled drug combined with Example 3
# LoVo = test: Cancer cell panel, cell viability (resazurin): Colon, LoVo; conditions: 72 hours, labelled drug combined with Example 3
# 786-O = test: Cancer cell panel, cell viability (resazurin): Renal, 786-O; conditions: 786-O (Renal), 72 hours; labelled drug combined with Example 3
# Procedure: as §1, §2
# HL60 = test: Cancer cell panel, cell viability (resazurin): Leukemia, HL60; conditions: 72 hours, labelled drug combined with Example 3
# Ramos = test: Cancer cell panel, cell viability (resazurin): Burkitt's Lymphoma, Ramos; conditions: 72 hours, labelled drug combined with Example 3
# WM-115 = test: Cancer cell panel, cell viability (resazurin): Melanoma, WM-115; conditions: WM-115 (Melanoma), 72 hours; labelled drug combined with Example 3
# H1975 = test: Cancer cell panel, cell viability (resazurin): NSCLC, H1975; conditions: 72 hours, labelled drug combined with Example 3
# Daudi = test: Cancer cell panel, cell viability (resazurin): Burkitt's Lymphoma, Daudi; conditions: 72 hours, labelled drug combined with Example 3
# LnCap = test: Cancer cell panel, cell viability (resazurin): Prostate, LnCap; conditions: 72 hours, labelled drug combined with Example 3
# Procedure: as §1, §2
# K562 = test: Cancer cell panel, cell viability (resazurin): Leukemia, K562; conditions: 72 hours, labelled drug combined with Example 3
# MDA-MB-157 = test: Cancer cell panel, cell viability (resazurin): Breast, MDA-MB-157; conditions: MDA-MB-157 (Breast), 72 hours; labelled drug combined with Example 3
# SKOV-3 = test: Cancer cell panel, cell viability (resazurin): Ovarian, SKOV-3; conditions: SKOV-3 (Ovarian), 72 hours; labelled drug combined with Example 3
# H460 = test: Cancer cell panel, cell viability (resazurin): NSCLC, H460; conditions: 72 hours, labelled drug combined with Example 3
# Colo205 = test: Cancer cell panel, cell viability (resazurin): Colon, Colo205; conditions: 72 hours, labelled drug combined with Example 3
# DLD-1 = test: Cancer cell panel, cell viability (resazurin): Colon, DLD-1; conditions: DLD-1 (Colon), 72 hours; labelled drug combined with Example 3
# Procedure: as §1, §2
# ZR-75-1 = test: Cancer cell panel, cell viability (resazurin): Breast, ZR-75-1; conditions: ZR-75-1 (Breast), 72 hours; labelled drug combined with Example 3
# U266 = test: Cancer cell panel, cell viability (resazurin): multiple myeloma, U266; conditions: 72 hours, labelled drug combined with Example 3
# MOLT4 = test: Cancer cell panel, cell viability (resazurin): Leukemia, MOLT4; conditions: 72 hours, labelled drug combined with Example 3
smiles,measurement,setting,value
"CC[C@]1(O)C[C@@H]2CN(CCc3c([nH]c4ccccc34)[C@@](C(=O)OC)(c3cc4c(cc3OC)N(C)[C@H]3[C@@](O)(C(=O)OC)[C@H](OC(C)=O)[C@]5(CC)C=CCN6CC[C@]43[C@@H]65)C2)C1 [Vinblastine, vinblastine]","synergy, additivity or antagonism of the combination of Example 3 with the anti-cancer drug",BT-474,+ (Additive relative to each agent alone (CI = 0.9-1 by Bliss Independence Model and <0.9 by Highest Single Agent Model))
same,"synergy, additivity or antagonism of the combination of Example 3 with the anti-cancer drug",SK-MEL-24,+ (Additive relative to each agent alone (CI = 0.9-1 by Bliss Independence Model and <0.9 by Highest Single Agent Model))
same,"synergy, additivity or antagonism of the combination of Example 3 with the anti-cancer drug",A549,+ + + (Synergy relative to each agent alone (CI = 0.4-0.74 by Bliss Independence Model))
same,"synergy, additivity or antagonism of the combination of Example 3 with the anti-cancer drug",RPMI8226,+ (Additive relative to each agent alone (CI = 0.9-1 by Bliss Independence Model and <0.9 by Highest Single Agent Model))
same,"synergy, additivity or antagonism of the combination of Example 3 with the anti-cancer drug",SK-MEL-3,+ (Additive relative to each agent alone (CI = 0.9-1 by Bliss Independence Model and <0.9 by Highest Single Agent Model))
same,"synergy, additivity or antagonism of the combination of Example 3 with the anti-cancer drug",HCT116,+ (Additive relative to each agent alone (CI = 0.9-1 by Bliss Independence Model and <0.9 by Highest Single Agent Model))
same,"synergy, additivity or antagonism of the combination of Example 3 with the anti-cancer drug",H1299,+ (Additive relative to each agent alone (CI = 0.9-1 by Bliss Independence Model and <0.9 by Highest Single Agent Model))
same,"synergy, additivity or antagonism of the combination of Example 3 with the anti-cancer drug",BxPC3,+ + + (Synergy relative to each agent alone (CI = 0.4-0.74 by Bliss Independence Model))
same,"synergy, additivity or antagonism of the combination of Example 3 with the anti-cancer drug",H23,+ + (Slight synergy relative to each agent alone (CI = 0.75-0.9 by Bliss Independence Model))
same,"synergy, additivity or antagonism of the combination of Example 3 with the anti-cancer drug",Caov-3,+ (Additive relative to each agent alone (CI = 0.9-1 by Bliss Independence Model and <0.9 by Highest Single Agent Model))
same,"synergy, additivity or antagonism of the combination of Example 3 with the anti-cancer drug",A375,+ (Additive relative to each agent alone (CI = 0.9-1 by Bliss Independence Model and <0.9 by Highest Single Agent Model))
same,"synergy, additivity or antagonism of the combination of Example 3 with the anti-cancer drug",NAMALWA,+ (Additive relative to each agent alone (CI = 0.9-1 by Bliss Independence Model and <0.9 by Highest Single Agent Model))
same,"synergy, additivity or antagonism of the combination of Example 3 with the anti-cancer drug",MeWO,+ (Additive relative to each agent alone (CI = 0.9-1 by Bliss Independence Model and <0.9 by Highest Single Agent Model))
same,"synergy, additivity or antagonism of the combination of Example 3 with the anti-cancer drug",Raji,+ (Additive relative to each agent alone (CI = 0.9-1 by Bliss Independence Model and <0.9 by Highest Single Agent Model))
same,"synergy, additivity or antagonism of the combination of Example 3 with the anti-cancer drug",LoVo,+ (Additive relative to each agent alone (CI = 0.9-1 by Bliss Independence Model and <0.9 by Highest Single Agent Model))
same,"synergy, additivity or antagonism of the combination of Example 3 with the anti-cancer drug",786-O,+ + + (Synergy relative to each agent alone (CI = 0.4-0.74 by Bliss Independence Model))
same,"synergy, additivity or antagonism of the combination of Example 3 with the anti-cancer drug",HL60,+ + (Slight synergy relative to each agent alone (CI = 0.75-0.9 by Bliss Independence Model))
same,"synergy, additivity or antagonism of the combination of Example 3 with the anti-cancer drug",Ramos,+ (Additive relative to each agent alone (CI = 0.9-1 by Bliss Independence Model and <0.9 by Highest Single Agent Model))
same,"synergy, additivity or antagonism of the combination of Example 3 with the anti-cancer drug",WM-115,+ (Additive relative to each agent alone (CI = 0.9-1 by Bliss Independence Model and <0.9 by Highest Single Agent Model))
same,"synergy, additivity or antagonism of the combination of Example 3 with the anti-cancer drug",H1975,+ (Additive relative to each agent alone (CI = 0.9-1 by Bliss Independence Model and <0.9 by Highest Single Agent Model))
same,"synergy, additivity or antagonism of the combination of Example 3 with the anti-cancer drug",Daudi,+ (Additive relative to each agent alone (CI = 0.9-1 by Bliss Independence Model and <0.9 by Highest Single Agent Model))
same,"synergy, additivity or antagonism of the combination of Example 3 with the anti-cancer drug",LnCap,+ (Additive relative to each agent alone (CI = 0.9-1 by Bliss Independence Model and <0.9 by Highest Single Agent Model))
same,"synergy, additivity or antagonism of the combination of Example 3 with the anti-cancer drug",K562,+ (Additive relative to each agent alone (CI = 0.9-1 by Bliss Independence Model and <0.9 by Highest Single Agent Model))
same,"synergy, additivity or antagonism of the combination of Example 3 with the anti-cancer drug",MDA-MB-157,+ + (Slight synergy relative to each agent alone (CI = 0.75-0.9 by Bliss Independence Model))
same,"synergy, additivity or antagonism of the combination of Example 3 with the anti-cancer drug",SKOV-3,+ (Additive relative to each agent alone (CI = 0.9-1 by Bliss Independence Model and <0.9 by Highest Single Agent Model))
same,"synergy, additivity or antagonism of the combination of Example 3 with the anti-cancer drug",H460,+ (Additive relative to each agent alone (CI = 0.9-1 by Bliss Independence Model and <0.9 by Highest Single Agent Model))
same,"synergy, additivity or antagonism of the combination of Example 3 with the anti-cancer drug",Colo205,+ + + (Synergy relative to each agent alone (CI = 0.4-0.74 by Bliss Independence Model))
same,"synergy, additivity or antagonism of the combination of Example 3 with the anti-cancer drug",DLD-1,+ + + + (Strong synergy relative to each agent alone (CI < 0.4 by Bliss Independence Model))
same,"synergy, additivity or antagonism of the combination of Example 3 with the anti-cancer drug",ZR-75-1,+ (Additive relative to each agent alone (CI = 0.9-1 by Bliss Independence Model and <0.9 by Highest Single Agent Model))
same,"synergy, additivity or antagonism of the combination of Example 3 with the anti-cancer drug",U266,+ (Additive relative to each agent alone (CI = 0.9-1 by Bliss Independence Model and <0.9 by Highest Single Agent Model))
same,"synergy, additivity or antagonism of the combination of Example 3 with the anti-cancer drug",MOLT4,− (Slightly antagonistic relative to each agent alone (CI = 1.1-1.2 by Highest Single Agent Model))
